In US7232690B1, “Method and device for detecting and isolating pharmacological compounds being contained in substance mixtures” (LTS Lohmann Therapie-Systeme AG, priority 1999, dated 2007):
Like-named read-outs stand apart in the source and are kept apart here.

Legend:
[1] = biological target: T1, Trypsin (Bos taurus, UniProt P00760); experiment: Trypsin inhibition constant (Ki); assay type: biochemical; details: read-out: Ki [μmol/l] Trypsin
T1 sequence (P00760 24-246): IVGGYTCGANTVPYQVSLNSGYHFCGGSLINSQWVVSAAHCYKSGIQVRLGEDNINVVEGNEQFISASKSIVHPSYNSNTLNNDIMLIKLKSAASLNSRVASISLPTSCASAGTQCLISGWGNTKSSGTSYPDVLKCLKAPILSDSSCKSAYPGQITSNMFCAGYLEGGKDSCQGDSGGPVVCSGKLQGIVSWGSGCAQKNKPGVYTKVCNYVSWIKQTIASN

[2] = test system: serine protease trypsin; experiment: Ultrafiltration target-binding test of non-equimolar amidinophenylalanine mixture with trypsin (Example 2); details: applied 6 8.4, 7 41.25, 10 2.5 μmol/l
Description: (§1) Incubation of the substance library and the inhibitor with thrombin took place at room temperature within 1 hour; solvent: 0.9% of NaCl in H2O. The separation of the protein-ligand complexes formed was accomplished by ultrafiltration (centrifugal). All filtration procedures and washes were carried out until dryness of the filters.
(§2) Filter: Microcon 10 (Amicon)
(§3) Centrifugation conditions: 9981×g, room temperature
(§4) Washing steps: 2×, each with 150 μl of 0.9% NaCl in H2O, 4° C.
(§5) Ultrafiltration and analysis of the filtrate were followed by washing steps and the liberation of the ligand (the active chemical substance) from the protein-ligand complex retained on the filter by treatment with 200 μl of water/methanol/TFA (49.5/49.5/1) at room temperature.
(§6) The blind sample (without thrombin) was treated analogously in all steps so that a comparison of the filtrates was possible. The filtrates obtained in all steps were dried by means of a speed-VAC concentrator, and later dissolved in the corresponding HPLC flow agent of defined amount applying ultrasound and agitation.
Identification of the ligands was accomplished by analytic HPLC: stationary phase Hypersil C 18 BDS, 3 μm, 150*0.3 mm, Fusica (LC Packings)—mobile phase: acetonitrile/water/TFA (35/65/0.01), isocratic, 5 μL/min, λ=[…].
The trypsin inhibitors of 3-amidinophenylalanine represented in the following by their structural formulae, were used as chemical substances, and the serine protease trypsin as target:
The experiments were performed as described in Example 1.

[3] = biological target: T2, Thrombin (Homo sapiens, UniProt P00734); experiment: Thrombin inhibition constant (Ki); assay type: biochemical; details: read-out: Ki [μmol/l] Thrombin
[4] = biological target: serine protease thrombin (Homo sapiens, UniProt P00734); experiment: Ultrafiltration target-binding test of substance library with thrombin, HPLC of filtrates (Example 1); details: 10 μmol/l each substance, 5 μmol/l thrombin, 1 hour room temperature
Description: As a target, the serine protease thrombin was chosen.
The examined assays were of the following composition:
as §1, §2, §3, §4, §5, §6
Identification of the ligands was accomplished by analytic HPLC: stationary phase Hypersil C 18 BDS, 3 μm, 150*0.3 mm, Fusica (LC Packings)—mobile phase: acetonitrile/water/TFA (35/65/0.01), isocratic, 5 μL/min, λ=[…]. […]

[5] = biological target: T2, Thrombin; details: thrombin inhibitor CRC 220 of Behringwerke; cited from earlier work

| Compound | Ki [1] | 1st Wash ([2]; Sample 261, without trypsin) | 2nd Wash ([2]; Sample 261, without trypsin) | Filtrate ([2]; Sample 261, without trypsin) | Liberation ([2]; Sample 261, without trypsin) | 1st Wash ([2]; Sample 262, trypsin 50 μmol/l) | 2nd Wash ([2]; Sample 262, trypsin 50 μmol/l) | Filtrate ([2]; Sample 262, trypsin 50 μmol/l) | Liberation ([2]; Sample 262, trypsin 50 μmol/l) | Ki [3] | Binding to target thrombin (difference between main experiment and blind sample) [4] | Ki [5] |
| --- | --- | --- | --- | --- | --- | --- | --- | --- | --- | --- | --- | --- |
| CCOC(=O)C1CCN(C(=O)C(Cc2cccc(C(=N)N)c2)NS(=O)(=O)c2ccc3ccccc3c2)CC1 (stereo not shown) [Substance 10] | 0.02 µmol/L | 0.02 µmol/L | 0.0013 µmol/L | 0.05 µmol/L | 0.0011 µmol/L | 0.0058 µmol/L | 0.0012 µmol/L | 0.02 µmol/L | 0.53 µmol/L | 0.36 µmol/L |  |  |
| CS(=O)(=O)N1CCN(C(=O)C(Cc2cccc(C(=N)N)c2)NS(=O)(=O)c2ccc3ccccc3c2)CC1 (stereo not shown) [Substance 6] | 0.067 µmol/L | 0.71 µmol/L | 0.05 µmol/L | 7.44 µmol/L | 0.01 µmol/L | 0.23 µmol/L | 0.15 µmol/L | 0.67 µmol/L | 6.09 µmol/L | 0.0021 µmol/L |  |  |
| Cl.Clc1cccc(Cl)c1NC1=NCCN1 [clonidin-HCL] |  |  |  |  |  |  |  |  |  |  | not an inhibitor |  |
| COc1cc(C)c(S(=O)(=O)N[C@@H](CC(=O)O)C(=O)N[C@H](Cc2ccc(C(=N)N)cc2)C(=O)N2CCCCC2)c(C)c1C [CRC 220] |  |  |  |  |  |  |  |  |  |  |  | 2.5 nM |
